Measured values from US9969698B2, “Quinoxalinyl-piperazinamide methods of use” (REXAHN PHARMACEUTICALS, INC., priority 2015, dated 2018).

Biological target: T1, p68 RNA helicase (Homo sapiens, UniProt P17844)
T1 construct: made in house
Assay: DARTS target identification (thermolysin protection, Western blot)
Assay type: cell-based
Settings: MDA-MB-231 cells treated 0.1-10 μM for one hour
Method: MDA-MB-231 cells were plated onto 6 well plates and treated with RX-5902 at various concentrations (0, 0.1, 1 and 10 μM) for one hour. Cells were lysed with p-MER buffer containing protease/phosphatase inhibitors on ice. Cell lysates were treated with thermolysin protease (1:1,500 ratio) for 10 min at RT and the reaction was stopped by addition of 0.5 M EDTA solution. The reaction mixtures were separated on a 10% SDS-PAGE visualized by Coomassie staining. After identifying several candidate proteins from mass spectrometry sequencing analysis, the protein which interacted with RX-5902 was confirmed by western blot analysis.
Protein mix or cell lysates were separated by SDS-PAGE and transferred to PVDF membrane. The membrane was blocked by blocking buffer (1×TBST containing 5% BSA) at room temperature for 1 hour. After a brief wash, the membrane was incubated with primary antibody in blocking buffer at 4° C. overnight. […]
Well-established target identification method DARTS assay (Lomenick et al., Proc. Natl. Acad. Sci. USA, 106:21984-21989 (2009)) was used to find target proteins that would interact with RX-5902 in cancer cells. […] To identify this protected protein, the bands along with control were sliced out, and analyzed with LC-MS/MS by ProtTech (Phoenixville, Pa.). […]

T1 sequence (P17844 whole entry): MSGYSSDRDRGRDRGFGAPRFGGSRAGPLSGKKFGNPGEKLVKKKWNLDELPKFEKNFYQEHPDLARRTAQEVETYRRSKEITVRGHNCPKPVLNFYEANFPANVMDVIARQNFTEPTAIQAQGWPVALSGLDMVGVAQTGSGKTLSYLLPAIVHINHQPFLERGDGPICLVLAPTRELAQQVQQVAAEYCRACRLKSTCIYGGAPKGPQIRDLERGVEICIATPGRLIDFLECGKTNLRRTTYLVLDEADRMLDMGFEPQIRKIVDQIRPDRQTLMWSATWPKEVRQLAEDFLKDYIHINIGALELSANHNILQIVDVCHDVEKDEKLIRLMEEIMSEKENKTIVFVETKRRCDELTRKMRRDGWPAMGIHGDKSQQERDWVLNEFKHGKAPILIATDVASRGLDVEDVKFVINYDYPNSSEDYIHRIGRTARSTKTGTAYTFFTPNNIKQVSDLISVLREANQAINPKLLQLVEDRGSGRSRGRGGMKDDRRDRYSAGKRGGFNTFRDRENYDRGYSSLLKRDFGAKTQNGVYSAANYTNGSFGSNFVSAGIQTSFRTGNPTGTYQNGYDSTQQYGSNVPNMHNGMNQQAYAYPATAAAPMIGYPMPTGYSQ

SMILES: COc1cc(OC)cc(N2CCN(C(=O)Nc3nc4cc(F)ccc4nc3OC)CC2)c1 [RX-5902, 4-(3,5-dimethoxyphenyl)-N-(7-fluoro-3-methoxyquinoxalin-2-yl)piperazine-1-carboxamide]
- protection of ~60 kDa band (p68 RNA helicase) from protease: protected from the protease cleavage
